Experimental data published in patent US10525058B2, “Urea derivative or pharmacologically acceptable salt thereof” (KYORIN PHARMACEUTICAL CO., LTD., priority 2015, dated 2020).

How the values were obtained:
[1] = biological target: T1, human FPRL1 (Homo sapiens, UniProt P25090); experiment: Measurement test of agonist activity on human FPRL1 (calcium mobilization in HEK293 cells transfected with human FPRL1 and Gα15); assay type: cell-based; conditions: Fluo-4 NW, molar concentration giving 50% maximum activation, read-out: Efficacy EC50
T1 construct: expressed in transfected cells; host or cells: HEK293 (JCRB9068, NIBIO), transient co-transfection with pCMV-script vectors
T1 sequence (P25090 1-351): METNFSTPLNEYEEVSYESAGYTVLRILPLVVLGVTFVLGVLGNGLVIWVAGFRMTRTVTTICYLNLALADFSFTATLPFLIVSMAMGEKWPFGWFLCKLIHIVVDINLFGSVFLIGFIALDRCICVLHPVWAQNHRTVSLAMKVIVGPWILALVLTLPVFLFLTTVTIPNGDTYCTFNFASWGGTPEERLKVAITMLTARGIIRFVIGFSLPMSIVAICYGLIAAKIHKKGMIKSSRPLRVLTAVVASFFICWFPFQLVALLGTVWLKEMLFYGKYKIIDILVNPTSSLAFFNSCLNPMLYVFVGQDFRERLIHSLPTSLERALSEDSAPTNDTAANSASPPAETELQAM
Text: Measurement test of agonist activity on human FPRL1
(1-1) Construction of Human FPRL1 Expression Vector
Human FPRL (SEQ ID NO: 3) was amplified in a PCR reaction from cDNA derived from a monocytic leukemia cell line THP-1 (TIB-202, ATCC) as a template using a forward primer shown in SEQ ID NO: 1, a reverse primer shown in SEQ ID NO: 2, and KOD-plus-ver. 2 (KOD-211, TOYOBO CO., LTD.). […] 2 (LGK-201, TOYOBO CO., LTD.). The ligation product was transformed into DH5α (DNA-901, TOYOBO CO., LTD.), cultured on a 100 μg/mL kanamycin-containing LB medium, and purified with HiSpeed Plasmid Maxi Kit (12662, QIAGEN).
(1-2) Construction of Human Gα15 Expression Vector
2. The amplified PCR product and pCMV-script vector were digested with Hind III and XhoI, and the resultant digest was ligated with Ligation high ver. 2. The ligation product was transformed into DH5α, cultured on a 100 μg/mL kanamycin-containing LB medium, and purified with HiSpeed Plasmid Maxi Kit.
(2-1) Method for Culturing and Subculturing HEK293
HEK293 (JCRB9068, NIBIO) was cultured in an incubator at 5% CO2 and 37° C. using DMEM (11885-092, GIBCO) containing 10% FBS and 1cPenicillin-Streptomycin (15140-122, GIBCO).
(2-2) Introduction of Human FPRL1 and Gal5 Expression Vectors
The cells were inoculated in a Collagen Type 1 coated 6-well plate (4810-010, IWAKI) to 5×10^5 cells/2.5 mL/well and cultured overnight. On the next day, human FPRL1 and Gα15 expression vectors were introduced using Lipofectamine 2000 transfection reagent (11668-019, Life technologies). First, the human FPRL1 and Gal5 expression vectors were diluted with Opti-MEM I Reduced Serum Medium (31985-070, GIBCO) to 2 μg/250 μL/well and Lipofectamine 2000 transfection reagent was diluted with Opti-MEM I Reduced Serum Medium to be 4 μL/250 μL/well. The vectors and reagent were softly diffused, and incubated at room temperature for 5 minutes. The vector solution was mixed with Lipofectamine 2000 transfection reagent in equal amounts. In order to form a complex of the vectors and Lipofectamine 2000 transfection reagent, the mixture was incubated at room temperature for 20 minutes, and added at 500 μL/well to the medium of inoculated cells. The treated cells were cultured for 24 hours, inoculated in Poly-D-Lysine coated 96-well plate (356640, BD Biosciences) at a cell density of 7×10^4 cells/100 μL/well, and cultured for another 24 hours. The resultant cells were used in a measurement test of calcium mobilization in the cells.
(3) Evaluation of Agonist Activity on Human FPRL1 (Test of Calcium Mobilization in Cell)
An appropriate amount of each test compound was first weighed, and dissolved to 10^−2 M by addition of dimethyl sulfoxide (DMSO). […] The plate dispensed with compound solutions was set in Flexstation (Molecular Devices, LLC.) until measurement.
Subsequently, 10 mL of assay buffer and 100 μL of probenecid solution (dissolved by addition of 1 mL of assay buffer to a 250 mM stock) were sufficiently mixed and dissolved in Fluo-4 NW dye mix. The medium of cells inoculated on the previous day was removed, the dissolved Fluo-4 NW dye mix was added in an amount of 90 μL/well, and a reaction was caused in the dark at 37° C. for 45 minutes. The cells after the reaction and chips for addition of the compound were set in Flexstation, and variation in fluorescence intensity over time after addition of the compound was measured [amount of added compound=10 μL (final concentration: 10^−5 M to 10^−12 M), excitation wavelength: 485 nm, measured wavelength: 525 nm, 1.5 sec×54 read]. A value was calculated by subtracting a base value during addition of DMSO from the maximum value of relative fluorescence unit, and analyzed. All the measurement data were analyzed with Prism 4 that was a data analysis tool.

[2] = tested on: neutrophilic infiltration in mouse lung; experiment: Effect on lipopolysaccharide-induced neutrophilic infiltration in mouse lung (BAL fluid neutrophil count); assay type: in vivo; conditions: oral, BALB/c male mouse, 30 min before LPS aerosol, BAL neutrophil count after 5 hours relative to control
Experimental: Effect of lipopolysaccharide induction on neutrophilic infiltration in mouse lung A compound to be tested was orally administrated to a mouse (BALB/c, male), and after 30 minutes, the mouse was placed in a plastic container. Lipopolysaccharide (0.3 mg/mL) dissolved in physiological saline was aerosolized with an ultrasonic wave nebulizer (NE-U17, OMRON Corporation), and exposed to the mouse for 10 minutes. After 5 hours, the anesthetized mouse was sacrificed by exsanguination. […] This operation was repeated 3 times, to obtain a BAL fluid. The BAL fluid was centrifuged at 4° C. and ×200 g for 5 minutes, and the pellet was suspended in a physiological saline containing 0.1% BSA. The number of white blood cells was counted using Turks solution with a microscope, and the total white blood cell count was calculated. The white blood cells were fixed on a glass slide using Cytospin 3 (Thermo BioAnalysis Japan K. K.). The cells were stained with Diff-Quik (SYSMEX INTERNATIONAL REAGENTS CO., LTD.), and the number thereof was counted with a microscope, and the neutrophil ratio was calculated. The neutrophil ratio was multiplied by the total white blood cell count to calculate the total neutrophil count. An effect of the compound to be tested represents a percentage (%) of suppression ratio relative to the neutrophil count in a control.

EC50 [1] [nM]	Structure (SMILES)	Suppression Ratio ([2]; dose 3 mg/kg) [%]	Suppression Ratio ([2]; dose 1 mg/kg) [%]
0.54	COc1ccc([C@@H]2COCC2NC(=O)Nc2ccc(Cl)cc2)cc1 (single isomer, unassigned; (+)) [Example 2-1 Isomer A, (+)-cis-1-(4-Chlorophenyl)-3-[4-(4-methoxyphenyl)tetrahydrofuran-3-yl]urea]	82	–
0.02	COc1cc(F)c([C@@H]2CN3CCON=C3[C@H]2NC(=O)Nc2ccc(F)cc2)c(F)c1 (relative stereo) [Example 7-7, 1-[(7R*,8S*)-7-(2,6-difluoro-4-methoxyphenyl)-4,6,7,8-tetrahydro-3H-pyrrolo[2,1-c][1,2,4]-oxadiazin-8-yl]-3-(4-fluorophenyl)urea]	–	97
0.62	COc1ccc([C@@H]2COCC2NC(=O)Nc2ccc(F)cc2)cc1 (single isomer, unassigned; (+)) [Example 3-1 Isomer A, (+)-cis-1-(4-Fluorophenyl)-3-[4-(4-methoxyphenyl)tetrahydrofuran-3-yl]urea]	80	–
